“Also recorded” adds a separate entry of the source.
Tests used:
A375 xenograft = A375 xenograft in mice; assay type: in vivo, Foxn1 nu mice; conditions: for inhibition in tumor growth: 15 mg/kg and 30 mg/kg I.P. q.o.d
Description: Animal studies were approved by the Institutional Animal Care and Use Committee of the Faculty of Medicine of the Hebrew University and followed the guidelines for use of laboratory animals. 6-8-week-old male Foxn1 nu mice were S.C. injected with 5×10^6 A375 and MDA-MB-231 cells/mouse. Mice were I.P treated with 30 mg/kg and 15 mg/kg AD-3281 every other day and with 15 mg/kg, 7.5 mg/kg AD-3281 every other day in mice injected with A375 and MDA-MB-231 respectively. Tumor growth was measured with a digital caliper. At the end of the experiments after 18 or 15 days, mice were sacrificed, and tumors were surgically removed, weighed, volume was measured and histology stating was performed. AD-3281 was dissolved in 10:10:80 […]:ethanol:saline.
Animal studies were approved by the Institutional Animal Care and Use Committee of the Faculty of Medicine of the Hebrew University and followed the guidelines for use of laboratory animals. 6-8-week-old male Foxn1 nu mice were S.C. injected with 5×10^6 A375 or MDA-MB-231 cells/mouse. Mice were I.P treated with 30 mg/kg and 15 mg/kg AD-3281 q.o.d and with 15 mg/kg, 7.5 mg/kg AD-3281 (dissolved in 10:10:80 Cremophor EL: Ethanol: Saline) q.o.d in mice injected with A375 and MDA-MB-231 respectively. Tumor growth was measured with a digital caliper. At the end of the experiments after 18 or 15 days, mice were sacrificed, and tumors were surgically removed, weighed, volume was measured and histology stating was performed. Tumor tissues were resected at the end point and analyzed by immunohistology using standard protocol for paraffin fixed sections using anti-Ki-67 (Abcam, catalog number ab15580), anti-CD31 (Abcam, catalog number ab28364), anti-MetAp-2 (Ab134124, Abcam, Cambridge, UK) (Figure S.

[1] = target: T1, MetAp2 in MDA-MB-231 cancer cells (Homo sapiens, UniProt P50579); assay: MetAp2 enzymatic activity in MDA-MB-231 cell homogenate; assay type: biochemical; conditions: 2.5 μM
T1 construct: host or cells: MDA-MB-231 cell homogenate (RIPA supernatant, 5 µg protein)
Description: A375 and MDA-MB-231 were sub cultivated using trypsin, then centrifuge and counted. To obtain a homogenate containing an equivalent cell number, cells were resuspended in an appropriate volume of cold RIPA containing a protease inhibitor cocktail. Insoluble cellular components were removed by centrifugation at 15,000 RPM for 10 min at 4° C. The protein content of the supernatant was determined according to the Bradford protein assay using BSA as the standard.
The enzymatic assay was performed using 5 μg protein per sample as described previously. […] An increase of fluorescence, due to substrate degradation during the enzymatic assay, was measured every 20 seconds for 1 h and 30 min at 37° C. using a plate reader (Wallac 1420 VICTOR plate reader, Perkin-Elmer Life Sciences, USA). […]
A375 and MDA-MB-231 were sub-cultivated using trypsin, then centrifuged and counted. […] The protein content of the supernatant was determined according to the Bradford protein assay using BSA as the standard. […] An increase of fluorescence, due to substrate degradation during the enzymatic assay, was measured every 20 seconds for 1 h and 30 min at 37° C. using a plate reader (Wallac 1420 VICTOR plate reader, Perkin-Elmer Life Sciences, USA). […]

MetAP2 = MetAP2 (Homo sapiens, UniProt P50579); assay: MetAp2 enzymatic assay, L-Met-AMC substrate (Experimental Set-Up 1); assay type: biochemical
Description: Quantitative MetAP2 activity assay by N-terminal cleavage of substrate 7-amino-4-methyl-courmarin was performed as follows: The activity of MetAP2 was measured using fluorescent peptide substrate L-Met-AMC (Santa Cruz Biotechnology, Inc, sc-207807) as described by Garrabrant et al. (Angiogenesis 7: 91-96, 2004). Briefly, the reaction (100 μl final) was initiated by adding 0.5 μg of MetAP2 or 5 μg HUVEC homogenate to reaction buffer containing 50 mM HEPES (pH 7.4), 100 mM NaCl, 0.1 mM CoCl2, 1 mg/ml PEG6000, and 250 μM L-Met-AMC substrate. The assay was prepared in black flat-bottomed 96-well microtiter plates and fluorescence was measured every 20 s over a period of 60 min at 25° C. using a microplate fluorometer (Bioteck, SynergyHT), with excitation and emission wavelengths set at 360 and 440 nm respectively. As a control the inhibition of the enzyme was obtained by incubating it with TNP-470 for 15 min before the addition of the substrate.
The inhibitory effect of the compounds were tested in MetAp2 enzymatic assay.

[2] = system: A375 3D multicellular spheroids; assay: A375 3D spheroid viability (WST1); assay type: cell-based, human; conditions: 50 μM free inhibitor, 96 h
Description: 3D Petri Dish 35-well array (Microtissues Inc., RI, USA) was used to create 2% agarose hydrogel micro-wells. Each well contained 5,000 cells of A375 cells. 30 minutes after seeding, 1 ml of medium was added and templates were incubated at 37° C. for 24 hours. […] The absorbance was measured at 450 nm using a plate reader (Wallac 1420 VICTOR plate reader, Perkin-Elmer Life Sciences, USA).

T1 sequence (P50579 whole entry): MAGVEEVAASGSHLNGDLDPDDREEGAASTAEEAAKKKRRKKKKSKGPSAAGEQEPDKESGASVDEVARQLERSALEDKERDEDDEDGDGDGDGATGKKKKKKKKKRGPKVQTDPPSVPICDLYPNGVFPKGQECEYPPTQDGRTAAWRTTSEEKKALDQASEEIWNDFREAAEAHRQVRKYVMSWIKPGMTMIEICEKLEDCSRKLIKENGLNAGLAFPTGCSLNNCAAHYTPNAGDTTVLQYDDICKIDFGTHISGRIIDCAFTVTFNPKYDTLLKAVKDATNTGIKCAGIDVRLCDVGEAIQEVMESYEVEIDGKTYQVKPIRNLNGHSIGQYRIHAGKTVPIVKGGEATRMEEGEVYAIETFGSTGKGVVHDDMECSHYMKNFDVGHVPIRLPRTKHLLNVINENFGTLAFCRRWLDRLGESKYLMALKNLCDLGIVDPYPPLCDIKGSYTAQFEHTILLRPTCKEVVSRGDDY
Sequence of MetAP2 (P50579 whole entry): as above

COC1C(OC(=O)CC23CC4CC(CC(C4)C2)C3)CCC2(CO2)C1C1(C)OC1CC=C(C)C (centres unmarked) [AD-3281, Fumagillol-1-adamantylacetate] was tested, and the “inhibition in tumor growth” value (A375 xenograft; after 8 days, vs control) was roughly 70%, the “inhibition in tumor growth” value (A375 xenograft; day 18) was 99% and the “cellular proliferation in tumors (Ki-67)” value (A375 xenograft; immunofluorescent staining of extracted tumors) was “less cellular proliferation than untreated tumors”. For the same molecule, the “mean weight of extracted tumors” value (A375 xenograft; treated groups, day 18 (untreated 1 g)) was roughly 0.1 g, the “inhibition of MetAp2 activity in MDA-MB-231 after 10 minutes” value ([1]; 10 minutes of exposure) was “Significant inhibition” and the “reduction of MetAp2 enzymatic activity in MDA-MB-231” value ([1]; over the course of 1 h) was 80%. The “inhibitory effect in MetAp2 enzymatic assay (ranking among compounds)” value (MetAP2) was “most active” and the “effect of free inhibitor on spheroids viability” value [2] was “did not show a significant reduction; also recorded: slight reduction of spheroids viability”.
